How the values were obtained:
Spisula oocytes = assay: Whole egg germinal vesicle breakdown (GVBD) and spindle assembly assay; format: cell-based, Spisula solidissima
Protocol: Oocytes are prepared as generally described in Allen R D. (1953) Biol Bull. 105:213-239; Palazzo, R. E., Vaisberg, E., Cole, R. W. and Rieder, C. L. (1992) Science. 256: 219-221; Vogel, J. M., Stearns, T., Rieder, C. L. and Palazzo, R. E. (1997) J. Cell Biol. 137: 193-202; and Schnackenberg, B. J. and Palazzo, R. E. (1999) Biology of the Cell. 91: 429-438.
(§1) Briefly, adult Spisula or Mulinia are collected from the Atlantic Ocean, often by the Marine Resources Department of the Marine Biological Laboratory (Woods Hole, Mass.) or from commercial fisherman and maintained in flow-through sea water tanks at ˜13° C. containing artificial sea water (ASW). Oocytes are then dissected from ripe ovaries, passed through cheese cloth, and washed in sea water by three cycles of suspension/sedimentation. Oocytes are then activated by treatment with KCl for 4 min, and lysates are prepared as previously described by Palazzo et al. (Palazzo, R. E., J. B. Brawley, and L. I. Rebhun (1988). Zool. Sci. (Tokyo). 5: 603-611).
(§2) Aster formation in oocytes, embryos, and lysates is assessed with polarized light microscopy by adding 3% hexylene glycol to small aliquots and warming to 24° C. (Palazzo, R. E., J. B. Brawley, and L. I. Rebhun (1988). Zool. Sci. (Tokyo). 5: 603-611). The remaining lysate is aliquoted, snap frozen, and stored at −80° C. Frozen lysates retain the ability to assemble asters after years of storage.
In one embodiment of the invention, oocyte activation to induce GVBD, aster formation, spindle assembly, and cleavage can be induced by 5-hydroxy triptamine (5-HT, serotonin), fertilization, or depolarization of the cell plasma membrane by treatment with KCl when cells are incubated in sea water. This requires the entry of calcium into the cell after treatment with these agents. Thus, the GVBD, or events subsequent to GVBD, can be used as indicators for hormone-receptor interactions (serotonin), effect of calcium channel blockers (resulting in a block of GVBD and subsequent events after treatment with KCL, 5HT or sperm), or agents that block fertilization generally. Therefore the present invention can be used not only to screen for antimitotic agents but also putative neuromodulators (serotonin inhibitors and the like), cardiomodulators, vasoactive agents (calcium channel blockers) and anti-fertility agents.
Using the whole egg assay described above, Spisula oocytes were treated with 0.25 μM HMN-176 or 0.001% DMSO and activated to undergo germinal vesicle (nucleus) breakdown (GVBD), and aster and spindle formation.

human tumor cell lines = settings: several human tumor cell lines; cited from earlier work
sea urchin tubulin = assay: Tubulin polymerization (turbidity) assay, sea urchin tubulin; format: biochemical, Strongylocentrotus purpuratus; settings: 0.025 uM, 0.25 uM and 2.5 uM
Protocol: Sea urchin (Strongylocentrotus purpuratus) microtubules are prepared by three cycles of polymerization/depolymerization as previously described (Suprenant, K. A., and J. C. Marsh (1987) J. Cell Sci. 87: 71-84). Aliquots of ˜0.5-2.0 mg/ml protein are stored in 100 mM potassium-Pipes, pH 6.9, 1 mM EGTA, 5 mM MgSO4, 2 mM GTP (reassembly buffer) at −80° C. Three-cycled tubulin is diluted with reassembly buffer to 0.7 mg/ml for all functional assays unless otherwise stated.
(§3) The tubulin polymerization assay used herein is performed according to the teachings of Vogel, J. M., Steams, T., Rieder, C. L. and Palazzo, R. E. (1997) J. Cell Biol. 137: 193-202 and Suprenant K A, Marsh J C. (1987) J Cell Sci. 87:71-84, each of which is incorported herein by reference in its entirety.
The effect of HMN-176 on sea urchin tubulin (0.75 mg/mL of S. purpuratus tubulin at 26° C.) polymerization in defined media was examined according to the methods described above. Sea urchin tubulin was isolated from Strongylocentrotus purpuratus oocytes by three cycles of microtubule polymerization and depolymerization. After the third cycle, microtubules were depolymerized, centrifuged to clarify, and the resulting supernatant adjusted to a concentration of 0.75 mg/ml protein. Samples were aliquoted and stored at −80° C.
The polymerization assay was used to test the effects of varying concentrations of HMN-176 (0.025 uM, 0.25 uM and 2.5 uM) along with varying amounts of DMSO for control (0.0001%, 0.001% and […]), respectively. Polymerization of untreated tubulin was also measured.
(§4) Sea urchin and clam tubulin turbidity assays were performed at 30° C. and 0.7 mg/mL of tubulin. Doses of 0.025 uM, 0.25 uM and 2.5 uM of HMN-176 were compared to DMSO treatment, all of which were compared to untreated control.

CFPAC cells = assay: Mammalian spindle phenotypes and time in mitosis in CFPAC cells; format: cell-based, human
Protocol: To determine the effect of HMN-176 on mammalian cell lines, the transformed human cell line, CFPAC, was used. CFPAC cells were derived from a ductal adenocarcinoma (liver metastasis) from a patient with cystic fibrosis (ATCC #CRL-1918). CFPAC cellswere treated for 2 hours with 0.5 uM DMSO or 0.5 uM HMN-176 (n=79). Cells were studied for progression through mitosis and cell cleavage using video microscopy, or prepared for immunofluorescence analysis with antibodies to visualize beta tubulin or treated with Hoechst 33342 (Sigma Aldrich, St. Louis, Mo. to visualize DNA and chromosomes.

[1] = test system: centrosomes in Spisula lysates; assay: Lysate aster formation assay; format: biochemical, Spisula solidissima; settings: 0.025 uM, 0.25 uM or 2.5 uM
Protocol: as §1, §2
Using the lysate aster formation assay described above, Spisula lysates were warmed to room temperature with lysates containing varying amounts of HMN-176 (0.025 uM, 0.25 uM or 2.5 uM) or DMSO (0.0001%, 0.001%, or 0.01%) as control. […]

[2] = test system: Isolated centrosomes reconstituted with sea urchin tubulin; assay: Isolated centrosome assay (aster formation in defined media); format: biochemical, Spisula solidissima; settings: 0.25 uM, 0.75 mg/mL sea urchin tubulin, time course of 25 minutes
From the text: Centrosomes are isolated and prepared according to the methods of Vogel et al. (Vogel, J. M., Stearns, T., Rieder, C. L. and Palazzo, R. E. (1997) J. Cell Biol. 137: 193-202). Briefly, centrosomes are isolated from lysates by sucrose density-gradient centrifugation using a modification of the procedures known in the art for isolation of mammalian centrosomes. As such, lysates are thawed on ice, and aliquots are removed and tested for aster formation using hexylene glycol and polarized light microscopy as previously described. For each preparative gradient, 2-3 ml of crude lysate (˜9-18×10^6 centrosomes) are diluted with 0.60 vol of aster buffer (Aster Buffer: 20 mM sodium-Pipes, pH 7.2, 100 mM NaCl, 5.0 mM MgSO4), resuspended, and centrifuged (5,500 g/4° C./10 min) using a rotor (model JS 13.1; Beckman Instruments). […] Fractions (1.0 ml) are collected at 4° C. by bottom puncture of centrifuge tubes, and sucrose density is determined with the use of a hand-held refractometer.
Fractions are tested for centrosome content based on their ability to organize microtubules in the form of radial astral arrays when reconstituted with tubulin media. Thus, 10 μl aliquots from each fraction are diluted into 40 μl of tubulin media (0.3-0.7 mg/ml three-cycled sea urchin tubulin in RAB buffer containing 2 mM GTP) and incubated for 10 min at ambient temperature, and asters are counted using a hemacytometer viewed with a polarized light microscope. […]
Centrosome assembly and function is crucial for the coordinated polymerization of microtubules that leads to spindle assembly and chromosome segregation during mitosis. […] The isolated centrosome assay is used to (1) induce the synchronous assembly of centrosomes in hundreds of grams of live Spisula oocytes or large quantities of oocyte lysates and is performed according to the methods disclosed by Palazzo, R. E., Vaisberg, E., Cole, R. W. and Rieder, C. […]

clam tubulin = assay: Tubulin turbidity assay, clam tubulin; format: biochemical, Spisula solidissima; settings: 0.025 uM, 0.25 uM and 2.5 uM; 30° C., 0.7 mg/mL of tubulin
Protocol: Three-cycled tubulin can also be prepared from Spisula oocyte lysates using a modification of the procedure described in Suprenant, K. A. (1989) Exp. Cell Res. 184: 167-180. Lysates are thawed and diluted with 0.8 vol of dilution buffer (100 mM potassium-Pipes, pH 7.2, 4 mM EGTA, 1 mM MgSO4, 1 mM DTT) containing 1 mM GTP, […] leupeptin, and 0.2 mM phenylmethylsulfonyl fluoride. Diluted lysate is then gently resuspended on ice and centrifuged (39,000 g/2° C./30 min) using a rotor (model JA20; Beckman Instruments Fullerton, Calif.) to clarify. Supernatants are collected and three-cycled tubulin prepared as previously described (Suprenant, K. A. (1989) Exp. Cell Res. 184: 167-180).
as §3, §4

mouse xenograft models = settings: cited from earlier work
[3] = marine invertebrate gamete system, concentration not given
[4] = 0.75 mg/mL S. purpuratus tubulin at 26° C.
[5] = 0.5 uM treatment for 2 hours, n = 79

## COc1cc2c(c(OC)c1OC)-c1ccc(OC)c(=O)cc1[C@@H](NC(C)=O)CC2 [Colchicine]
Spisula oocytes; [3]
  Effect on GVBD: does not affect GVBD
  Effect on spindle assembly: inhibits spindle assembly
Human tumor cell lines
  Cytotoxicity: cytotoxic

## COc1ccc(S(=O)(=O)Nc2ccccc2/C=C/c2cc[n+]([O-])cc2)cc1 [HMN-176, (E)-4-{[2-N-[4-methoxybenzenesulfonyl]amino]stillbazole}1-oxide]
Spisula oocytes; 0.25 μM, activated Spisula oocytes, observed at 9-26 minutes
  Effect on germinal vesicle breakdown (GVBD): not affecting GVBD
Spisula oocytes; 0.25 μM, activated Spisula oocytes, observed at 15 and 26 minutes
  Effect on spindle assembly in oocytes: inhibit spindle assembly
Sea urchin tubulin; [4]
  Effect on polymerization of tubulin: only minor effect on the polymerization of tubulin
  Effect on rate of microtubule polymerization: may slightly lower the rate of microtubule polymerization
Sea urchin tubulin; 0.75 mg/mL S. purpuratus tubulin at 26° C., by 25 minutes
  Effect on ultimate plateau of tubulin polymerization (turbidity): does not affect the ultimate plateau
Sea urchin tubulin; 30° C., 0.7 mg/mL of tubulin
  Effect on sea urchin tubulin turbidity: Very little to no effect
CFPAC cells; 0.5 uM for 2 hours
  Spindle types observed: multipolar spindles with disorganized chromosomes
CFPAC cells; [5]
  Spindle type: Bipolar, number of cells: 13
  Spindle type: Bipolar, percent of cells: 16%
  Spindle type: Monopolar, number of cells: Monopolar 0 (0%)
  Spindle type: Monopolar, percent of cells: Monopolar 0 (0%)
  Spindle type: Multipolar, number of cells: 66
  Spindle type: Multipolar, percent of cells: 84%
CFPAC cells; 0.5 uM, video microscopy
  Time that CFPAC cells were in mitosis: 147 ± 55 min
[1]; lysates
  Status of centrosomes (immunofluorescence alpha-/gamma-tubulin): centrosomes remained intact in all samples
[1]; lysates warmed to room temperature
  Effect on aster formation in lysates: blocked aster formation in the lysate aster formation assay in a dose dependent manner
[2]
  Aster formation by isolated centrosomes in defined media: no asters were formed
  Background microtubule polymerization (not centrosome-associated): microtubule polymerization was observed in the background
  Status of centrosomes (gamma-tubulin staining): Centrosomes remained intact in all samples
Clam tubulin
  Effect on clam tubulin turbidity: Very little to no effect

## COc1ccc(S(=O)(=O)N(C(C)=O)c2ccccc2/C=C/c2cc[n+]([O-])cc2)cc1 [HMN-214, (E)-4-{2-[2-(N-acetyl-N-[4-methoxybenzenesulfonyl]amino]stillbazole]}1-oxide]
Mouse xenograft models
  Antitumor activity: potent antitumor activity

Source: patent publication US20060240402A1, “Marine invertebrate gametes and embryos as an assay system for therapeutic screening” (priority 2005, published 2006)
